The values that follow come from US4260606A, “3-Methyleneazetidine derivatives” (A. H. Robins Company, Inc., priority 1979, dated 1981).

The structures appear in SMILES notation. “And” between values parts separate entries of the source, which are not always exact repeats. Identical values can stand only once. Like-named read-outs stand apart in the source and are kept apart here.

The test system of this assay is Tetrabenazine-Induced Ptosis. As to the kind of experiment: Blockade of Tetrabenazine-Induced Ptosis in Mice (anti-tetrabenazine test). It counts as in vivo, mice (ICR-DUB strain). The settings on record: for ED50: Mus musculus, ip, read-out: ED50 (95% Confidence Limits), blockade of tetrabenazine-induced ptosis. Here is the method: Antidepressant agents block many of the behavioral and physiological effects of tetrabenazine and reserpine, such as motor depression, hypothermia, and ptosis. […] Thirty minutes later the presence or absence of complete eyelid closure (ptosis) is assessed in each animal. For compounds which produced blockage of ptosis in all animals, and ED50 value is obtained using a minimum of three geometrically spaced doses with five mice/dose.

The mark [1] stands for this setting: mice, IP, 30 minutes prior to tetrabenazine 32 mg/kg IP, ptosis assessed thirty minutes later, probit analysis, 95% confidence limits.

A word on the ED50: it is the dose at which the effect has come halfway, by size or by number of responders. Regarding `CN(C)CCCN1c2ccccc2CCc2ccccc21` [imipramine], under setting [1], the ED50 amounted to 0.3 mg/kg; the “ED50 (95% Confidence Limits), blockade of tetrabenazine-induced ptosis” value is 0.4 (0.2-0.9) mg/kg IP and 0.5 (0.2-1.2) mg/kg IP.
Regarding `CCOc1ccccc1OCC1CNCCO1` (stereo not drawn) [viloxazine], the ED50 came out at 1.5 mg/kg.
